The structures appear in SMILES notation.

Series [1] concerns HBV. In words: Anti-HBV activity in HepG2.2.15 cells (HBV DNA in culture medium by qPCR). It counts as cell-based. Particulars: Hepatitis B virus, 144 h, 6 days treatment. As to the method: (§1) HepG2.2.15 (the HepG2.2.15 cell line can be produced by transfection of the HepG2 cell line as described in Sells, Chen, and Acs 1987 (Proc. Natl. Acad. Sci. USA 84: 1005-1009), and the HepG2 cell line is available from ATCC® under number HB-8065™)
(§2) HepG2.2.15 cells were plated into 96-well plate in 2% FBS culture medium at the density of 40,000 cells/well and 5,000 cells/well for HBV inhibitory activity and cytotoxicity determination, respectively. After incubation at 37° C., 5% CO2 overnight, cells were treated with medium containing compounds for 6 days with medium and compounds refreshed after 3 days of treatment. Each compound was tested in a 1:3 serial dilutions at 8 different concentrations in triplicate. The highest concentration of the compounds was 10 uM or 1 uM for anti-HBV activity assay and 100 uM for cytotoxicity determination.
The change of HBV DNA level induced by the compounds was assessed by quantitative real-time polymerase chain reaction (qPCR). Briefly, the HBV DNA in the culture medium was extracted using QIAamp 96 DNA Blood Kit according to the manual and then quantified by real-time PCR assay using the primers and probe in the table 1 below.
(§3) EC50 and CC50 values are calculated by the GRAPHPAD PRISM software.
In general terms: Real-time PCR tracks product formation cycle by cycle.

Series [2] in a line: Cytotoxicity determination in HepG2.2.15 cells (CCK-8 cell viability). It counts as cell-based. The conditions noted are these: human, 6 days treatment, CCK-8 assay. As to the method:
as §1, §2
Cell viability was determined by CCK-8 assay. After 6 days of compounds treatment, 20 μl CCK-8 reagents were added to each well of cytotoxicity assay plates. Cell plates were incubated at 37° C., 5% CO2 for 2.5 h. The absorbance at 450 nm wavelength and the absorbance at 630 nm wavelength as reference was measured.
as §3

One may read the EC50 as the midpoint of the concentration-response curve. A low value points to an effect from little substance. One may read the CC50 as the concentration giving 50% cytotoxicity. Read a high CC50 as better tolerance by the cells. The compound `CCOC(=O)C1=C(CN2CC(F)(F)[C@H]3CCN(CC(C)(C)C(=O)O)C(=O)[C@H]32)NC(c2nccs2)=N[C@H]1c1cccc(F)c1C` (single isomer, unassigned) [Compound I-1, 3-((3aS*,7aS*)-1-(((S)-5-(ethoxycarbonyl)-6-(3-fluoro-2-methylphenyl)-2-(thiazol-2-yl)-3,6-dihydropyrimidin-4-yl)methyl)-3,3-difluoro-7-oxohexahydro-1H-pyrrolo[2,3-c]pyridin-6(2H)-yl)-2,2-dimethylpropanoic acid] came in with an EC50 in series [1] of 0.06 µM. Besides, the CC50 at 6 days in series [2] was 32 µM.
For `CCOC(=O)C1=C(CN2CC(F)(F)[C@H]3CC(=O)N(CC(C)(C)C(=O)O)C[C@H]32)NC(c2nccs2)=N[C@H]1c1cccc(F)c1C` (single isomer, unassigned) [Compound I-2, 3-((3aS*,7aS*)-1-(((S)-5-(ethoxycarbonyl)-6-(3-fluoro-2-methylphenyl)-2-(thiazol-2-yl)-3,6-dihydropyrimidin-4-yl)methyl)-3,3-difluoro-5-oxohexahydro-1H-pyrrolo[2,3-c]pyridin-6(2H)-yl)-2,2-dimethylpropanoic acid], in series [1], a half-maximal effect (EC50) was put at 0.034 µM. The compound further gave a CC50 at 6 days in series [2] of 50.4 µM.
Consider `CCOC(=O)C1=C(CN2CC(F)(F)[C@H]3CCN(C(=O)C(C)(C)C(=O)O)C[C@H]32)NC(c2nccs2)=N[C@H]1c1cccc(F)c1C` (single isomer, unassigned) [Compound I-3, 3-((3aS*,7aS*)-1-(((S)-5-(ethoxycarbonyl)-6-(3-fluoro-2-methylphenyl)-2-(thiazol-2-yl)-3,6-dihydropyrimidin-4-yl)methyl)-3,3-difluorohexahydro-1H-pyrrolo[2,3-c]pyridin-6(2H)-yl)-2,2-dimethyl-3-oxopropanoic acid], for which, in series [1], a half-maximal response (EC50) required 0.21 µM. For the same compound, in series [2], the CC50 at 6 days amounted to 30 µM.
In series [1], `CCOC(=O)C1=C(CN2CC(F)(F)[C@H]3C(=O)N(CC(C)(C)C(=O)O)CC[C@H]32)NC(c2nccs2)=N[C@H]1c1cccc(F)c1C` (single isomer, unassigned) [Compound I-5, 3-((3aR*,7aR*)-1-(((S)-5-(ethoxycarbonyl)-6-(3-fluoro-2-methylphenyl)-2-(thiazol-2-yl)-3,6-dihydropyrimidin-4-yl)methyl)-3,3-difluoro-4-oxohexahydro-1H-pyrrolo[3,2-c]pyridin-5(6H)-yl)-2,2-dimethylpropanoic acid] returned an EC50 of 0.048 µM. This compound also registered a CC50 at 6 days in series [2] of 47.1 µM.
As to `CCOC(=O)C1=C(CN2CC(F)(F)[C@H]3CN(CC(C)(C)C(=O)O)CC[C@H]32)NC(c2nccs2)=N[C@H]1c1cccc(F)c1C` (single isomer, unassigned) [Compound I-6, 3-((3aS*,7aR*)-1-(((S)-5-(ethoxycarbonyl)-6-(3-fluoro-2-methylphenyl)-2-(thiazol-2-yl)-3,6-dihydropyrimidin-4-yl)methyl)-3,3-difluorohexahydro-1H-pyrrolo[3,2-c]pyridin-5(6H)-yl)-2,2-dimethylpropanoic acid], in series [1], the midpoint of the response, the EC50, lay at 0.081 µM. In series [2], the midpoint of cytotoxicity, the CC50 at 6 days, lay at 43.4 µM.
As for `CCOC(=O)C1=C(CN2CC(F)(F)[C@H]3CN(C(=O)C(C)(C)C(=O)O)CC[C@H]32)NC(c2nccs2)=N[C@H]1c1cccc(F)c1C` [Compound I-4, 3-((cis)-1-(((S)-5-(ethoxycarbonyl)-6-(3-fluoro-2-methylphenyl)-2-(thiazol-2-yl)-3,6-dihydropyrimidin-4-yl)methyl)-3,3-difluorohexahydro-1H-pyrrolo[3,2-c]pyridin-5(6H)-yl)-2,2-dimethyl-3-oxopropanoic acid], in series [1], the EC50 amounted to 0.081 µM. Further, the CC50 at 6 days in series [2] was 34.4 µM.

For the origin of these results see patent US20220281865A1, “DIHYDROPYRIMIDINE DERIVATIVES AND USES THEREOF IN THE TREATMENT OF HBV INFECTION OR OF HBV-INDUCED DISEASES” (Janssen Sciences Ireland Unlimited Company, priority 2019, published 2022).
